Assays:
MASTL = target: T1, MASTL (Homo sapiens, UniProt Q96GX5); settings: reported MASTL inhibitors, background art; cited from earlier work
T1 sequence (Q96GX5 1-879): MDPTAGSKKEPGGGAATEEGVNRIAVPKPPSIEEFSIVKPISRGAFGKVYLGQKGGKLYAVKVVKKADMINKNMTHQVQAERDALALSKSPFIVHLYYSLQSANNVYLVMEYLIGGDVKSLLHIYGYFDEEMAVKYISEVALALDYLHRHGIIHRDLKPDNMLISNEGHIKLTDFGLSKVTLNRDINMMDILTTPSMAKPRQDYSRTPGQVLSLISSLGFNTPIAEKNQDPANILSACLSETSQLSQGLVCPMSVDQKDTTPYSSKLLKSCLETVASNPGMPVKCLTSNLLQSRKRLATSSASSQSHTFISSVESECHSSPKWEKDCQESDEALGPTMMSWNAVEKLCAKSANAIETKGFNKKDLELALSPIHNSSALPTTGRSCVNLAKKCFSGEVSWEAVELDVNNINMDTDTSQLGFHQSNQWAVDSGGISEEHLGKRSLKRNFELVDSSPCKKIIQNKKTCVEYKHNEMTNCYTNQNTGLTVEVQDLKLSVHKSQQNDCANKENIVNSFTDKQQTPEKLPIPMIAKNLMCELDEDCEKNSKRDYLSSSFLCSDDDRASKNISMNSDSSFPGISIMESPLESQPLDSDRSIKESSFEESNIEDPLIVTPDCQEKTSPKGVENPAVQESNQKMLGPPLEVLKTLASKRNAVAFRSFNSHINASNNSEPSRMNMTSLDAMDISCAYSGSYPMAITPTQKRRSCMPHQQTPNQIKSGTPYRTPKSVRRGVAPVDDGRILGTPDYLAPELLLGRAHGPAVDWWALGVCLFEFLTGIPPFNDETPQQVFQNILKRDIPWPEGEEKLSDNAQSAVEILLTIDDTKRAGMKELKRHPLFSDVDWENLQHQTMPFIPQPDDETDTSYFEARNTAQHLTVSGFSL

[1] = Cell viability analysis, WST-8 assay, MCF10A; settings: human, mcf10a cells
Description: (§1) MCF7 breast cancer cell lines and MCF10A normal breast cancer cell lines were treated with serial dilutions of the compounds of the present invention ranging from 1 µM to 15.63 nM for 72 hours. Cell viability was measured by the WST-8 assay (Cyto XTM cell viability assay kit; LPS solution, Daejeon, Korea) according to the manufacturer's instructions.

[2] = system: MCF10A normal breast cell lines; experiment: Cell viability analysis, WST-8 assay, MCF10A; settings: Homo sapiens, MCF-10A, 72 h, read-out: IC50(nM) Cell viability (MCF10A)
Description: as §1

[3] = target: T2, Recombinant GST-TAG-MASTL (Homo sapiens, UniProt Q96GX5); experiment: HTRF-based kinase assay (HTRF KinEASE assay kit); format: biochemical
T2 construct: GST; purchased Thermo Fisher Scientific
T2 sequence (Q96GX5 1-879): T1 sequence (Q96GX5 1-879)
From the text: Recombinant GST-TAG-MASTL (Thermo Fisher Scientific, MA, USA) was used for HTRF-based kinase assays. The HTRF KinEASE assay kit (CisBio, MA, USA) was used according to the manufacturer's instructions.

pENSA = pENSA level by immunofluorescence (described method: in vitro kinase analysis with GST-tag-MASTL and His-tag-ENSA); format: cell-based
In short: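 In vitro kinase reaction using recombinant GST-tagged MASTL with His-tagged ENSA as substrate; phosphorylated ENSA (pENSA) serves as read-out of MASTL activity. Cell lines named: MCF7 breast cancer and MCF10A.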

[4] = system: MCF7 breast cancer cell lines; experiment: Cell viability analysis, WST-8 assay, MCF7; settings: Homo sapiens, MCF7, 72 h
Description: as §1

IC50 ([3]; HTRF, read-out: IC50(nM) MASTL activity)	activity at 1 µM ([3]; compound 1 µM, read-out: MASTL activity (%) HTRF (1 µM))	IC50 (pENSA; read-out: IC50(nM) pENSA)	IC50 ([4]; read-out: IC50(nM) Cell viability (MCF7))	SMILES	IC50 (MASTL)	viability at 1 µM [1]	IC50 [2]	pENSA (%) Immunofluor ecense (1 µM) (pENSA; compound 1 µM)	viability at 1 µM ([4]; read-out: Cell viability (%) WST-8, MCF7 (1 µM))
				O=C(Nc1nc2ccccc2[nH]1)c1cccc(-n2cccc2)c1 [MKI-1]	9.9 µM				
178 nM	20.8%	100 nM	207 nM	N#CCc1ccc(Nc2nc(Nc3cc(C4CC4)[nH]n3)c3ccccc3n2)cc1 [compound 3a, 2-(4-((4-((5-cyclopropyl-1G-pyrazol-3-yl)amino)quinazolin-2-yl)amino)phenyl)acetonitrile]		1.6%	29 nM	5.1%	0.05%

— EP4786466A1, “QUINAZOLINE DERIVATIVE, SALT THEREOF, AND PHARMACEUTICAL COMPOSITION COMPRISING SAME AS ACTIVE INGREDIENT” (Korea Research Institute of Chemical Technology, priority 2023, dated 2025)
